Several values for one entry are separate records, joined by “and”; a condition that tells them apart may be missing. Identical values can stand only once.
Tests used:
delF508-CFTR [1] = molecular target: T1, delF508-CFTR (Homo sapiens, UniProt P13569, DEL508-508); test: iodide efflux, targeting (retargeting) of delF508-CFTR in CF15 cells; assay type: cell-based; conditions: for effect of known CFTR inhibitors on delF508 transport after treatment with aloisine A: CF15 cells treated with aloisine A
T1 construct: endogenous in cells; host or cells: CF15 (homozygous delF508)
T1 sequence (P13569 with tags, fused parts or gaps DEL508-508): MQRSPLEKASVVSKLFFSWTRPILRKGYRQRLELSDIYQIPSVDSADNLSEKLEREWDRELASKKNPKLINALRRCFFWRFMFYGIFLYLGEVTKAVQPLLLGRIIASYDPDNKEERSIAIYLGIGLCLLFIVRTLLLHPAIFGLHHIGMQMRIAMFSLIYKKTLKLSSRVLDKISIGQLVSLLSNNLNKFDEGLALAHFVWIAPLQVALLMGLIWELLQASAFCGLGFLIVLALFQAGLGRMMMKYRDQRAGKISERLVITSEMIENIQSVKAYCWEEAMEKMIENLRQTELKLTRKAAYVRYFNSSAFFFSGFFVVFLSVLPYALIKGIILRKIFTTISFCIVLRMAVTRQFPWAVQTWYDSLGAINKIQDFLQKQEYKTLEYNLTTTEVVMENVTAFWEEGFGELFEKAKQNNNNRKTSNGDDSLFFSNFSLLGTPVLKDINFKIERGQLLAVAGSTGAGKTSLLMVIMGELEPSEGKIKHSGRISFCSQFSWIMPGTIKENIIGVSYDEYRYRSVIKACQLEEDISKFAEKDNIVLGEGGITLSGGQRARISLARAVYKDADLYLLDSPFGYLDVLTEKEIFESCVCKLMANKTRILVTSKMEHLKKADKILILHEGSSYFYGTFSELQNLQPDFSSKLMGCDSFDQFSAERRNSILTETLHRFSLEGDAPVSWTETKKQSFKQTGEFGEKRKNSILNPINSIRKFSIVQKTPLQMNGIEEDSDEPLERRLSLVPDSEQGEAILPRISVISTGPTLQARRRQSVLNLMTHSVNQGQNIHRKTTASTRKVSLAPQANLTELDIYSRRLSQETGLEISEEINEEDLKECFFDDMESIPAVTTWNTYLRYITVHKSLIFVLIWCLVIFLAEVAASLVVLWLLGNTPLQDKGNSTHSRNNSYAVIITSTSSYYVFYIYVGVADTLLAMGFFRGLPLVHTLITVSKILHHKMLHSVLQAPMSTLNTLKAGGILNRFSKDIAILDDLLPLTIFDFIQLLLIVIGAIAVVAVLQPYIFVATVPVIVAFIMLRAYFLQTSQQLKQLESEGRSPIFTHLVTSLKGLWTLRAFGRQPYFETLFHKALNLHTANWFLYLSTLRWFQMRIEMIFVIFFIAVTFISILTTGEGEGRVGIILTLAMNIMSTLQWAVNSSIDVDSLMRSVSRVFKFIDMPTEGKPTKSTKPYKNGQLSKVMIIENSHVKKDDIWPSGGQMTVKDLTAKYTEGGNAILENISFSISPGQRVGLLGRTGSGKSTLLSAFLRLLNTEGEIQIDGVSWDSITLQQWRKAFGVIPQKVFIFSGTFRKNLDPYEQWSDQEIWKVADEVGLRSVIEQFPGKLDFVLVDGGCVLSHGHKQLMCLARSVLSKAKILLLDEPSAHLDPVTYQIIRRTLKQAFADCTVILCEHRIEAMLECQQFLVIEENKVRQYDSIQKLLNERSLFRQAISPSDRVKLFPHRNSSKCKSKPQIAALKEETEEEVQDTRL
Experimental: (§1) CF15 cells: CF15 cells are human epithelial cells of nasal origin which express the Δ508-CFTR gene.
Next, the quantity of radiotracer which leaves the cell is counted after the addition of various pharmacological agents.
The cells are cultured on 24-well plates in a suitable medium. […] The iodide equilibrates on either side of the cell membrane. A robot (MultiPROBE, Packard) carries out the following steps: the loading medium is rinsed with efflux medium in order to remove the extracellular radioactivity. The supernatant is collected every minute in hemolysis tubes and the medium is replaced with an equivalent volume (500 μl). The samples collected for the first 3 minutes are not supplemented with drug, they make it possible to obtain a stable baseline, characterizing the passive outflow of the I ions. The next 7 samples are obtained in the presence of the molecule to be tested. At the end of the experiment, the cells are lyzed by adding 500 μl of NaOH (0.1 N)/0.1% SDS (30 min), thus, the radioactivity which remained inside the cell may be determined. The radioactivity present in the hemolysis tubes is counted as counts per minute (cpm) using a gamma counter (Cobra II, Packard). The results in cpm are expressed in the form of rate of radioactive iodide outflow (R) according to the following formula: […]
This iodide flow is represented in the form of a curve. In order to quantify the outflow of iodide due to the administration of the molecule tested, the following relative flow is calculated which makes it possible to dispense with the basic flow: relative rate (min^−1)=Rpeak−Rbasal. […] The results are presented in the form of a mean+/−SEM. The student's statistical test is used to compare the effect of the drugs to the controls (the values corresponding to P<0.01 are considered as statistically significant).
The study of the targeting of the delF508-CFTR protein was carried out by combining pharmacological and cell imaging approaches, and biochemical and electrophysiological tests on […] human epithelial cells CF15 homozygous for the delF508 deletion.
For each experiment, the addition of a cocktail (10 μM forskolin+30 μM genistein) allows the activation of CFTR when it is attached to the membrane. Thus, an iodide efflux can be observed if the targeting of delF508 has been restored.

G551D-CFTR = molecular target: T2, G551D-CFTR (Homo sapiens, UniProt P13569, G551D); test: iodide efflux, activation of G551D-CFTR in CHO cells; assay type: cell-based; conditions: CHO cell
T2 construct: expressed in transfected cells; host or cells: CHO cells
T2 sequence (P13569 whole entry G551D): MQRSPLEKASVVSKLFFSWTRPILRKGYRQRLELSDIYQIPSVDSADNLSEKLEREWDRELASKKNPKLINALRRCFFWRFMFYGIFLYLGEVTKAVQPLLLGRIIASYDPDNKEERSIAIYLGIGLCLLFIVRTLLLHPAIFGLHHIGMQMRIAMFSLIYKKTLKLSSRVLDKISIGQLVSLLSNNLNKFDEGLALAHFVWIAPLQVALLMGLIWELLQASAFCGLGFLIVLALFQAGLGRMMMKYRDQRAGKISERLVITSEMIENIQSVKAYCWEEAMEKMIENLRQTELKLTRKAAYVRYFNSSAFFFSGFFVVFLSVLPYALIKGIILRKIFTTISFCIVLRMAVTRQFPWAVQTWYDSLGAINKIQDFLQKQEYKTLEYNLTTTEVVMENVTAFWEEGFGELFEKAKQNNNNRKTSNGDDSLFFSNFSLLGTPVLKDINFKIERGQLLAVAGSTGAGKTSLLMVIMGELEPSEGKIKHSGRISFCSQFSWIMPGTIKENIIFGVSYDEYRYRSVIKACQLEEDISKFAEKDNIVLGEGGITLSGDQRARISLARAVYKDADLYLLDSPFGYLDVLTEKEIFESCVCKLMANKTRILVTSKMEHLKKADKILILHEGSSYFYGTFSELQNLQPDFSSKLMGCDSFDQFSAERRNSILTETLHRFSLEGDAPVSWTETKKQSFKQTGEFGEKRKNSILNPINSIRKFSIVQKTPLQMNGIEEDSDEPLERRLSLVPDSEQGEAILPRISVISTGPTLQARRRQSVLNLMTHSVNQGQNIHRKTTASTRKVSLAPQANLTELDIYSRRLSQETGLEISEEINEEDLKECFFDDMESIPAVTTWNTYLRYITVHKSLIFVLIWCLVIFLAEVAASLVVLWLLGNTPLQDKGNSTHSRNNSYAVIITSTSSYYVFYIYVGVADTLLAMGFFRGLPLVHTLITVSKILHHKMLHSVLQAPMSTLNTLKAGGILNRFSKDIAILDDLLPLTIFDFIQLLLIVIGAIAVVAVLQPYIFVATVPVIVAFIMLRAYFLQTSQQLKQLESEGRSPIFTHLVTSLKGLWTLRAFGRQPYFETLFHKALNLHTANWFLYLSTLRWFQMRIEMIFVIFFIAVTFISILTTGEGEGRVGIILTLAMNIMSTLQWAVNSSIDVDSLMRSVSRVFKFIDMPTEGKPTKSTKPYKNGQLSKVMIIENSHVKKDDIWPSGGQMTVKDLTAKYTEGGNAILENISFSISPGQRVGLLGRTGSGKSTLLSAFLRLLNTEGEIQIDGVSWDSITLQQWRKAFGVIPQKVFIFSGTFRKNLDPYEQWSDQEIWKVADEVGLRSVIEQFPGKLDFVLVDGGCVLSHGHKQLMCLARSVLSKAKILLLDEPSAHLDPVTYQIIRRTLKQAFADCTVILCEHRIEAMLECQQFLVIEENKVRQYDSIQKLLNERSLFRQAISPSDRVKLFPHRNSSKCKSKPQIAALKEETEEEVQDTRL
Experimental: (§2) the measurements of chloride ion transport in the cells was carried out with the aid of the radioactive iodide efflux technique (Becq et al., 1999; Dormer et al., 2001). The tracer (^125I) is incorporated into the intracellular medium. Next, the quantity of radiotracer which leaves the cell is counted after the addition of various pharmacological agents. Iodide is used as a tracer for the transport of chloride ions. ^125I further has the advantage of having a short life compared with that of other markers such as ^35Cl (respective ½ life: […] and 300000 years).
(§3) The cells are cultured on 24-well plates in a suitable medium. 2 rinses with efflux medium (NaCl: 136.6 mM, KCl: 5.4 mM, KH2PO4: 0.3 mM, NaH2PO4: 0.3 mM, NaHCO3: 4.2 mM, CaCl2: 1.3 mM, MgCl2: 0.5 mm, MgSO4: 0.4 mM, HEPES: 10 mM, D-glucose: 5.6 mM) are carried out in order to remove the dead cells which release the radioactivity anarchically. […] A robot (MultiPROBE, Packard) carries out the following steps: the loading medium is rinsed with efflux medium in order to remove the extracellular radioactivity. […] At the end of the experiment, the cells are lyzed by adding 500 μl of NaOH (0.1 N)/0.1% SDS (30 min), thus, the radioactivity which remained inside the cell may be determined. The radioactivity present in the hemolysis tubes is counted as counts per minute (cpm) using a gamma counter (Cobra II, Packard). […]

[2] = in vivo
CHO-WT cells = test: MTT cytotoxicity test; assay type: cell-based, Chinese Hamster; conditions: various concentrations
Experimental: The test of toxicity to MTT is a […] test which is based on capacity of mitochondrial dehydrogenases to metabolize MTT (yellow tetrazolium salt) to formazan (purple). The absorbance, which is proportional to the concentration of dye converted, can then be measured by spectrophotometry. […] 3 controls are prepared: 100% living cells: cells without agent; 0% living cells: cells left in the open air; blank: medium without cells. […] Next, they are incubated for 4 h with 100 μl of RPMI solution supplemented with MTT (0.5 mg/ml). The medium is then removed, the addition of 100 μl of DMSO makes it possible to solubilize the dye converted (formazan). The absorbance is measured by spectrophotometry at 570 nm (purple); 630 nm (background). In order to eliminate the background, the following calculation is carried out: DOreal=DO570nm−DO630nm. Next, the results are normalized with respect to the controls (100% and 0% of living cells) and are presented in the form of mean+/−SEM.

delF508-CFTR [3] = molecular target: T1, delF508-CFTR; test: iodide efflux, activation of delF508 in CF15 cells after incubation at 27° C.; assay type: cell-based
Experimental: as §1, §2
as §3, with “determined.” for “determined. The radioactivity present in the hemolysis tubes is counted as counts per minute (cpm) using a gamma counter (Cobra II, Packard).”

wild-type CFTR (CFTR-WT) = molecular target: T3, wild-type CFTR (CFTR-WT) (Homo sapiens, UniProt P13569); test: iodide efflux, activation of the CFTR chloride channel in CHO cells; assay type: cell-based
T3 construct: expressed in transfected cells; host or cells: CHO (Chinese Hamster Ovary) cells
T3 sequence (P13569 whole entry): as the sequence (P13569 whole entry G551D) above, with D551G counted along it
Experimental: CHO-WT cells: The CHO (Chinese Hamster Ovary) cells are fibroblasts which have been transfected with the wild-type CFTR (CFTR-WT) gene. These cells will therefore overexpress the CFTR protein.
the measurements of chloride ion transport in the cells was carried out with the aid of the radioactive iodide efflux technique (Becq et al., 1999; Dormer et al., 2001). The tracer (^125I) is incorporated into the intracellular medium. Next, the quantity of radiotracer which leaves the cell is counted after the addition of various pharmacological agents. […]
as §3

delF508-CFTR [4] = molecular target: T1, delF508-CFTR; test: immunolocalization of delF508-CFTR in CF15 cells (confocal imaging); assay type: cell-based; conditions: 100 μM aloisine A
Experimental: Immunolabeling makes it possible to reveal the cellular location of the CFTR protein using a primary anti-CFTR antibody (Ab), and then a secondary antibody anti-primary antibody labeled with the fluorophore Cy3.
The cells are inoculated beforehand on cover glass in appropriate culture medium. 3 washes with TBS (NaCl: 157 mM, Tris base: […], pH 7.4) of 5 min each are performed. The cells are then fixed by addition of TBS-paraformaldehyde (3%) for 20 min. After 3 washes with TBS (5 min), the cells are incubated with TBS-triton 0.1% (10 min) which allows the formation of holes in the cell membrane and then 3 washes with TBS are again carried out before bringing the cells into contact with TBS-BSA 0.5%-saponin 0.05% for 1 h. The cells are then incubated with the anti-C-terminal CFTR primary antibody (2 μg/ml) for 1 h. 3 washes with TBS-BSA-saponin of 5 min each are carried out before the incubation with the secondary antibody GAM-cy3 (1/400) for 1 h. Following 2 washes with TBS of 5 min, the nuclei are labeled by incubating with Topro3 (1/1000) for 5 min. Next, the cover glass may be mounted on the slide after 3 final washes with TBS of 5 min. […] In order to distinguish between the Cy3 and Topro3 labeling, the fluorescence color of Topro3 was changed to blue (color of the nuclei).

With `O=C(O)c1ccccc1Nc1ccccc1` [DPC] the “effect of known CFTR inhibitors on delF508 transport after treatment with aloisine A” value (“effect of known CFTR inhibitors” below) (delF508-CFTR [1]) was “blocked”.

With `CCCCc1c(-c2ccc(O)cc2)[nH]c2nccnc12` [aloisine A] the EC50 (G551D-CFTR) was 1.5 nM, the “delF508-CFTR activity after treatment” value (delF508-CFTR [1]; CF15 cells, 100 μM, 2 h treatment, 37° C.) was “restored” and the EC50 (delF508-CFTR [1]; CF15 cells, 2 h treatment, then 10 μM forskolin+30 μM genistein, read-out: EC50 of retargeting of delF508-CFTR (restored iodide efflux)) was 50000 nM and 49000 nM. For the same compound, the toxicity on animals [2] was “very low toxicity”, the “cell viability (MTT)” value (CHO-WT cells; 2 h incubation) was “viable for all the concentrations” and the “cell viability (MTT)” value (CHO-WT cells; 24 h incubation) was “viable for all the concentrations”. The EC50 (delF508-CFTR [3]) was 110 nM, the EC50 (wild-type CFTR (CFTR-WT)) was 152 nM and the “localization of the delF508 protein” value (delF508-CFTR [4]) was “redirect the delF508 protein to the membrane”.

In the case of `O=S(=O)(O)c1cc(N=C=S)ccc1C=Cc1ccc(N=C=S)cc1S(=O)(=O)O` [DIDS], the “effect of known CFTR inhibitors” value (delF508-CFTR [1]) is reported as “insensitive”.

With `C[C@H]1CCC/C=C/[C@@H]2C[C@H](O)C[C@H]2[C@H](O)/C=C/C(=O)O1` [Brefeldin A] the “competition with aloisine A: effect on the aloisine A-induced retargeting of delF508-CFTR” value (delF508-CFTR [1]; iodide efflux, CF15 cells) was “inhibition”.

For `COc1ccc(Cl)cc1C(=O)NCCc1ccc(S(=O)(=O)NC(=O)NC2CCCCC2)cc1` [glibenclamide], the “effect of known CFTR inhibitors” value (delF508-CFTR [1]) was “blocked”.

— US20090048260A1, “Use of pyrrolopyrazine derivatives for the production of medicaments for the treatment of mucoviscidosis and diseases related to protein addressing errors in cells” (priority 2004, published 2009)
